A word on the IC50: it is the midpoint of a concentration-inhibition curve.

Drawing on patent publication US20260055079A1, “PHTHALAZINONE COMPOUNDS AS PARP7 INHIBITORS” (AZKARRA THERAPEUTICS, INC., priority 2022, published 2026), this text covers IC50 for 28 compounds.

Chain of His-GST-PARP7 (Q7Z3E1 whole entry): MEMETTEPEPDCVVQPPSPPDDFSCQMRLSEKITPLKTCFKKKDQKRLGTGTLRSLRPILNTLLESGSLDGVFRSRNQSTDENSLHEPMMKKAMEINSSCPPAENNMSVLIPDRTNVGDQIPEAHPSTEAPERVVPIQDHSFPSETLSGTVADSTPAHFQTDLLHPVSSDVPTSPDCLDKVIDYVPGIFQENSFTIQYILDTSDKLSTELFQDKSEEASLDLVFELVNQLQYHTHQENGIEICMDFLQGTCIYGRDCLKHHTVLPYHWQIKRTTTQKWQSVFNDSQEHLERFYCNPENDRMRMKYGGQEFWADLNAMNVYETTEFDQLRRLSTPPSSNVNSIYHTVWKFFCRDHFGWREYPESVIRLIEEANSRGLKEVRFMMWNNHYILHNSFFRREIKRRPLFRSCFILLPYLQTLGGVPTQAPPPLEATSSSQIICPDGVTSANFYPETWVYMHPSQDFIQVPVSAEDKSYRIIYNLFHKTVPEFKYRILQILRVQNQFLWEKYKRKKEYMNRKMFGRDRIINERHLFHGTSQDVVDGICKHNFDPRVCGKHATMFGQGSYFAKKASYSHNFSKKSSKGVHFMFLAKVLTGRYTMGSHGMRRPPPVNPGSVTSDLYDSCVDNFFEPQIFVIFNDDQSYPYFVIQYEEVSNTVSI

One assay has as its target His-GST-PARP7 (Homo sapiens (Human), UniProt Q7Z3E1). Kind of assay: PARP7 biochemical assay.
Settings: not given
Compound `O=C(c1cc(Cc2n[nH]c(=O)c3ccc(OC4CCC4)cc23)ccc1F)N1C[C@H]2CC[C@@H](C1)N2C(=O)C1CC1` [Example 107, 6-Cyclobutoxy-4-(3-(8-(cyclopropanecarbonyl)-3,8-diazabicyclo[3.2.1]octane-3-carbonyl)-4-fluorobenzyl)phthalazin-1(2H)-one] displayed an IC50 of 100 to 500 nM.
`O=C(C1CC1)N1C[C@H]2CC[C@@H](C1)N2C(=O)c1cc(Cc2n[nH]c(=O)c3ccc(OC4CCC4)cc23)ccc1F` [Example 112, 6-Cyclobutoxy-4-(3-(3-(cyclopropanecarbonyl)-3,8-diazabicyclo[3.2.1]octane-8-carbonyl)-4-fluorobenzyl)phthalazin-1(2H)-one] came in with an IC50 of 100 to 500 nM.

The assay is the same for the next values; noted with them: read-out: PARP7 IC50.
Take `O=C(C1CC1)N1CCN(c2noc3c(Cc4n[nH]c(=O)c5ccc(OC6CCC6)cc45)cccc23)CC1` [Example 206, 6-Cyclobutoxy-4-((3-(4-(cyclopropanecarbonyl)piperazin-1-yl)benzo[d]isoxazol-7-yl)methyl)phthalazin-1(2H)-one]: the IC50 is 100 to 500 nM.
On the same count and under the same terms, the figure for `CNC(=O)c1ccnc(N(C)C2CN(C(=O)c3cc(Cc4n[nH]c(=O)c5ccc(OC6CCC6)cc45)ccc3F)C2)c1` [Example 123, 2-((1-(5-((7-cyclobutoxy-4-oxo-3,4-dihydrophthalazin-1-yl)methyl)-2-fluorobenzoyl)azetidin-3-yl)(methyl)amino)-N-methylisonicotinamide] is 500 to 2000 nM; for `CNC(=O)c1ccnc(N(C)C2CN(C(=O)c3cc(Cc4n[nH]c(=O)c5ccc(OC6CCC6)cc45)ccc3F)C2)n1` [Example 108, 2-((1-(5-((7-cyclobutoxy-4-oxo-3,4-dihydrophthalazin-1-yl)methyl)-2-fluorobenzoyl)azetidin-3-yl)(methyl)amino)-N-methylpyrimidine-4-carboxamide] it is 100 to 500 nM.
On the same count and under the same terms, the figure for `Cc1cnc(N(C)C2CN(C(=O)c3cc(Cc4n[nH]c(=O)c5ccc(OC6CCC6)cc45)ccc3F)C2)n1C` [Example 110, 6-Cyclobutoxy-4-(3-(3-((1,5-dimethyl-1H-imidazol-2-yl)(methyl)amino)azetidine-1-carbonyl)-4-fluorobenzyl)phthalazin-1(2H)-one] is 100 to 500 nM; for `O=C(NC1CN(C(=O)c2cc(Cc3n[nH]c(=O)c4ccc(OC5CCC5)cc34)ccc2F)C1)C1CC1` [Example 113, N-(1-(5-((7-Cyclobutoxy-4-oxo-3,4-dihydrophthalazin-1-yl)methyl)-2-fluorobenzoyl)azetidin-3-yl)cyclopropanecarboxamide] it is 100 to 500 nM; for `N#Cc1ccc(N2CC3CCC2CN3C(=O)c2cc(Cc3n[nH]c(=O)c4ccc(OC5CCC5)cc34)ccc2F)nc1` (stereo not shown) [Example 143, 6-(5-(5-((7-cyclobutoxy-4-oxo-3,4-dihydrophthalazin-1-yl)methyl)-2-fluorobenzoyl)-2,5-diazabicyclo[2.2.2]octan-2-yl)nicotinonitrile] it is 50 to 100 nM.
The same measure, in the same setting: next, `[2H]C([2H])(c1ccc(F)c(C(=O)N2CCN(c3ccc(C#N)cn3)CC2)c1)c1n[nH]c(=O)c2ccc(C#CC)cc12` [Example 73, 6-(4-(2-Fluoro-5-((4-oxo-7-(prop-1-yn-1-yl)-3,4-dihydrophthalazin-1-yl)methyl-d2)benzoyl)piperazin-1-yl)nicotinonitrile]: under 50 nM; `O=C(c1cc(Cc2n[nH]c(=O)c3ccc(OC4CCC4)cc23)ccc1F)N1CC2CN(c3ncc(C(F)(F)F)cn3)CC2C1` (stereo not shown) [Example 147, 6-cyclobutoxy-4-(4-fluoro-3-(5-(5-(trifluoromethyl)pyrimidin-2-yl)octahydropyrrolo[3,4-c]pyrrole-2-carbonyl)benzyl)phthalazin-1(2H)-one]: over 2000 nM; `CN(c1cc(C#N)ccn1)C1CN(C(=O)c2cc(Cc3n[nH]c(=O)c4ccc(OC5COC5)cc34)ccc2F)C1` [Example 124, 2-((1-(2-fluoro-5-((7-(oxetan-3-yloxy)-4-oxo-3,4-dihydrophthalazin-1-yl)methyl)benzoyl)azetidin-3-yl)(methyl)amino)isonicotinonitrile]: over 2000 nM.
As to `N#Cc1ccc(N2CCC3C2CCN3C(=O)c2cc(Cc3n[nH]c(=O)c4ccc(OC5CCC5)cc34)ccc2F)nc1` (stereo not shown) [Example 111, 6-(4-(5-((7-Cyclobutoxy-4-oxo-3,4-dihydrophthalazin-1-yl)methyl)-2-fluorobenzoyl)hexahydropyrrolo[3,2-b]pyrrol-1(2H)-yl)nicotinonitrile], the IC50 fell in the range of 100 to 500 nM.
In the case of `CC#Cc1ccc2c(=O)[nH]nc(Cc3cc(C(=O)N4CCN(c5ccc(C#N)cn5)CC4)c(F)cc3F)c2c1` [Example 77, 6-(4-(2,4-Difluoro-5-((4-oxo-7-(prop-1-yn-1-yl)-3,4-dihydrophthalazin-1-yl)methyl)benzoyl)piperazin-1-yl)nicotinonitrile], the half-inhibitory concentration (IC50) was under 50 nM.
On the same count and under the same terms, the figure for `CC#Cc1ccc2c(=O)[nH]nc(Cc3ccc(F)c(C(=O)N4CC5CCC(C4)N5c4ccc(C#N)cn4)c3)c2c1` [Example 64, 6-(3-(2-Fluoro-5-((4-oxo-7-(prop-1-ynyl)-3,4-dihydrophthalazin-1-yl)methyl)benzoyl)-3,8-diazabicyclo[3.2.1]octan-8-yl)nicotinonitrile] is under 50 nM; for `O=C(c1cc(Cc2n[nH]c(=O)c3ccc(OC4CCC4)cc23)ccc1F)N1CC(Nc2ncc(C(F)(F)F)cn2)C1` [Example 102, 6-Cyclobutoxy-4-(4-fluoro-3-(3-((5-(trifluoromethyl)pyrimidin-2-yl)amino)azetidine-1-carbonyl)benzyl)phthalazin-1(2H)-one] it is 50 to 100 nM.
On the same count and under the same terms, next, `CN(C(=O)C1CCN1)C1CN(C(=O)c2cc(Cc3n[nH]c(=O)c4ccc(OC5CCC5)cc34)ccc2F)C1` (stereo not shown) [Example 117, N-(1-(5-((7-cyclobutoxy-4-oxo-3,4-dihydrophthalazin-1-yl)methyl)-2-fluorobenzoyl)azetidin-3-yl)-N-methylazetidine-2-carboxamide]: 500 to 2000 nM; `N#Cc1ccc(N2CCN(C(=O)c3cc(Cc4n[nH]c(=O)c5ccc(S(=O)(=O)C6CC(F)(F)C6)cc45)ccc3F)CC2)nc1` [Example 54, 6-(4-(5-((7-((3,3-Difluorocyclobutyl)sulfonyl)-4-oxo-3,4-dihydrophthalazin-1-yl)methyl)-2-fluorobenzoyl)piperazin-1-yl)nicotinonitrile]: 500 to 2000 nM; `O=C(c1cc(Cc2n[nH]c(=O)c3ccc(OC4CCC4)cc23)ccc1F)N1CCn2c(CF)nnc2C1` [Example 164, 6-Cyclobutoxy-4-(4-fluoro-3-(3-(fluoromethyl)-5,6,7,8-tetrahydro-[1,2,4]triazolo[4,3-a]pyrazine-7-carbonyl)benzyl)phthalazin-1(2H)-one]: under 50 nM.
Regarding `N#Cc1ccnc(NC2CN(C(=O)c3cc(Cc4n[nH]c(=O)c5ccc(OC6CCC6)cc45)ccc3F)C2)c1` [Example 106, 2-(1-(5-((7-Cyclobutoxy-4-oxo-3,4-dihydrophthalazin-1-yl)methyl)-2-fluorobenzoyl)azetidin-3-ylamino)isonicotinonitrile], the IC50 was 100 to 500 nM.
On the same count and under the same terms, next, `N#Cc1ccc(NC2CN(C(=O)c3cc(Cc4n[nH]c(=O)c5ccc(OC6CCC6)cc45)ccc3F)C2)nc1` [Example 104, 6-((1-(5-((7-Cyclobutoxy-4-oxo-3,4-dihydrophthalazin-1-yl)methyl)-2-fluorobenzoyl)azetidin-3-yl)amino)nicotinonitrile]: 50 to 100 nM; `O=C(c1cc(Cc2n[nH]c(=O)c3ccc(OC4CCC4)cc23)ccc1F)N1CCC2C1CCN2C(=O)C1CC1` (stereo not shown) [Example 109, 6-cyclobutoxy-4-(3-(4-(cyclopropanecarbonyl)octahydropyrrolo[3,2-b]pyrrole-1-carbonyl)-4-fluorobenzyl)phthalazin-1(2H)-one]: 100 to 500 nM; `CC#Cc1ccc2c(=O)[nH]nc(Cc3ccc(F)c(C(=O)N4CCn5c(nnc5-c5ccccc5CC)C4)c3)c2c1` [Example 59, 4-(3-(3-(2-Ethylphenyl)-5,6,7,8-tetrahydro-[1,2,4]triazolo[4,3-a]pyrazine-7-carbonyl)-4-fluorobenzyl)-6-(prop-1-ynyl)phthalazin-1(2H)-one]: 100 to 500 nM.
On the same count and under the same terms, the figure for `O=C(NC1CN(c2ncc(C(F)(F)F)cn2)C1)c1cc(Cc2n[nH]c(=O)c3ccc(OC4CCC4)cc23)ccc1F` [Example 205, 5-((7-Cyclobutoxy-4-oxo-3,4-dihydrophthalazin-1-yl)methyl)-2-fluoro-N-(1-(5-(trifluoromethyl)pyrimidin-2-yl)azetidin-3-yl)benzamide] is over 2000 nM; for `N#Cc1ccc(N2CC3CN(C(=O)c4cc(Cc5n[nH]c(=O)c6ccc(OC7CCC7)cc56)ccc4F)CC3C2)nc1` (stereo not shown) [Example 115, 6-(5-(5-((7-Cyclobutoxy-4-oxo-3,4-dihydrophthalazin-1-yl)methyl)-2-fluorobenzoyl)hexahydropyrrolo[3,4-c]pyrrol-2(1H)-yl)nicotinonitrile] it is 100 to 500 nM; for `N#Cc1ccc(N2CCN(C(=O)c3cc(Cc4n[nH]c(=O)c5ccc(Oc6ccccn6)cc45)ccc3F)CC2)nc1` [Example 38, 6-(4-(2-Fluoro-5-((4-oxo-7-(pyridin-2-yloxy)-3,4-dihydrophthalazin-1-yl)methyl)benzoyl)piperazin-1-yl)nicotinonitrile] it is under 50 nM.
The same measure, in the same setting: the figure for `CC#Cc1ccc2c(=O)[nH]nc(Cc3ccc(F)c(C(=O)N4C[C@@H]5C[C@H]4CN5c4ccc(C#N)cn4)c3)c2c1` [Example 68, 6-((1S,4S)-5-(2-fluoro-5-((4-oxo-7-(prop-1-ynyl)-3,4-dihydrophthalazin-1-yl)methyl)benzoyl)-2,5-diazabicyclo[2.2.1]heptan-2-yl)nicotinonitrile] is 500 to 2000 nM.
On to `COc1c(Oc2ccccc2)ccc2c(=O)[nH]nc(Cc3ccc(F)c(C(=O)N4CCN(c5ccc(C#N)cn5)CC4)c3)c12` [Example 89, 6-(4-(2-Fluoro-5-((8-methoxy-4-oxo-7-phenoxy-3,4-dihydrophthalazin-1-yl)methyl)benzoyl)piperazin-1-yl)nicotinonitrile], for which the IC50 fell in the range of 50 to 100 nM.
Same read-out and setting: the figure for `CC(F)(F)c1cnc(N2CCN(C(=O)c3cc(Cc4n[nH]c(=O)c5ccc(OC6CCC6)cc45)ccc3F)CC2)nc1` [Example 161, 6-cyclobutoxy-4-(3-(4-(5-(1,1-difluoroethyl)pyrimidin-2-yl)piperazine-1-carbonyl)-4-fluorobenzyl)phthalazin-1(2H)-one] is under 50 nM.
